27 compounds from US20240174671A1, “New 2,3-Dihydro-1H-pyrrolo[3,2-b]pyridine Derivatives as Sigma Ligands” (ACONDICIONAMIENTO TARRASENSE, priority 2021, published 2024) can be followed below.

Read-outs that look alike come from different tables or passages of the source.

Assay [1] concerns the target T1, human σ2/TMEM97 receptor (Homo sapiens, UniProt Q5BJF2).
T1 construct: expressed in transfected cells; host or cells: HEK-293
The assay can be described thus: Binding assay to human σ2/TMEM97 receptor ([3H]-DTG). The method in brief: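 Membranes from transfected HEK-293 cells incubated with 10 nM [3H]-DTG in 50 mM Tris-HCl pH 8.0, 120 min at 25 °C; non-specific binding defined with 10 μM haloperidol. Bound radioactivity counted after filtration; compounds tested as % inhibition at 1 or 10 μM or at five concentrations for Ki.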

Assay [2] addresses T2, human σ1 receptor (Homo sapiens, UniProt Q99720).
T2 construct: expressed in transfected cells; host or cells: HEK-293
Nature of the assay: Human σ1 receptor radioligand assay ([3H](+)-pentazocine). The format is binding. As to conditions: transfected HEK-293 membranes, 5 nM [3H](+)-pentazocine, 37° C., 120 minutes; read-out: Binding σ-[…] (binding to σ1-receptor expressed as Ki). In outline:
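Binding used [3H](+)-pentazocine, 120 min at 37° C, with non-specific binding defined by 10 μM haloperidol. Bound radioligand was collected by filtration, washed with ice-cold 10 mM Tris-HCl pH 7.4 and counted by scintillation.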

The mark [3] stands for this setting: transfected HEK-293 membranes, 10 nM [3H]-DTG, 25° C., 120 minutes, read-out: Binding σ-[…] (binding to σ2-receptor expressed as Ki).

T1 sequence (Q5BJF2 whole entry): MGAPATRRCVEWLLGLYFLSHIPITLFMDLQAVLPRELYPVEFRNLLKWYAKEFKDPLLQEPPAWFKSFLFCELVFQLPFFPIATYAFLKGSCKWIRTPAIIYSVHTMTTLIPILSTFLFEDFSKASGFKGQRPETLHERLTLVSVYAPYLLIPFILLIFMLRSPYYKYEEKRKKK
T2 sequence (Q99720 whole entry): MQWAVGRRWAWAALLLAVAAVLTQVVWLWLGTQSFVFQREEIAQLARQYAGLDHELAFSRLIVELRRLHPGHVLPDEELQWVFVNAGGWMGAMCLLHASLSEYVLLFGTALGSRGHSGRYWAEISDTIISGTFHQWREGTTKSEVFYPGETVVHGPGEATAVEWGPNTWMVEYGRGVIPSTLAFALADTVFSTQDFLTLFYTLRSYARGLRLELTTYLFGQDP

With `CN(Cc1cc(F)cc(C#N)c1)C1CCN(C(=O)N2CC(C)(C)c3ncccc32)CC1` [Example 76, 3-(((1-(3,3-dimethyl-2,3-dihydro-1H-pyrrolo[3,2-b]pyridine-1-carbonyl)piperidin-4-yl)(methyl)amino)methyl)-5-fluorobenzonitrile], the Ki in assay [1] (setting [3]) is 500 to 1000 nM; in assay [2] it was greater than 1000 nM.

Consider `CN(Cc1cc(C#N)ccc1F)C1CCN(C(=O)N2CC(C)(C)c3ncccc32)CC1` [Example 77, 3-(((1-(3,3-dimethyl-2,3-dihydro-1H-pyrrolo[3,2-b]pyridine-1-carbonyl)piperidin-4-yl)(methyl)amino)methyl)-4-fluorobenzonitrile], for which the Ki in assay [1] (setting [3]) is 100 to 500 nM; in assay [2], greater than 1000 nM.

For the compound `CN(Cc1ccccc1)[C@H]1CC[C@H](N(C)C(=O)N2CC(C)(C)c3ncccc32)CC1` [Example 78, N-((1r,4r)-4-(benzyl(methyl)amino)cyclohexyl)-N,3,3-trimethyl-2,3-dihydro-1H-pyrrolo[3,2-b]pyridine-1-carboxamide], the Ki was less than 100 nM in assay [1] (setting [3]) and 500 to 1000 nM in assay [2].

Turning to `CN(Cc1ccc(F)c(F)c1)C1CCN(C(=O)N2CC(C)(C)c3ncccc32)CC1` [Example 79, (4-((3,4-Difluorobenzyl)(methyl)amino)piperidin-1-yl)(3,3-dimethyl-2,3-dihydro-1H-pyrrolo[3,2-b]pyridin-1-yl)methanone], the values for the Ki in assay [1] (setting [3]) and in assay [2] were less than 100 nM and 100 to 500 nM, respectively.

As for `Cc1ccc2c(n1)C(C)(C)CN2C(=O)N1CCC2(CCN(Cc3ccccc3)CC2)C1` [Example 80, (8-benzyl-2,8-diazaspiro[4.5]decan-2-yl)(3,3,5-trimethyl-2,3-dihydro-1H-pyrrolo[3,2-b]pyridin-1-yl)methanone], the Ki in assay [1] (setting [3]) is less than 100 nM; in assay [2], 100 to 500 nM.

On to `Cc1ccc2c(n1)C(C)(C)CN2C(=O)N1CC2(CN(Cc3ccccc3)C2)C1` [Example 81, (6-benzyl-2,6-diazaspiro[3.3]heptan-2-yl)(3,3,5-trimethyl-2,3-dihydro-1H-pyrrolo[3,2-b]pyridin-1-yl)methanone], for which the Ki in assay [1] (setting [3]) was 500 to 1000 nM; in assay [2], less than 100 nM.

Take `Cc1ccc2c(n1)C(C)(C)CN2C(=O)NCC1CN(Cc2ccccc2)C1` [Example 82, N-((1-benzylazetidin-3-yl)methyl)-3,3,5-trimethyl-2,3-dihydro-1H-pyrrolo[3,2-b]pyridine-1-carboxamide]: the figures for the Ki in assay [1] (setting [3]) and in assay [2] were less than 100 nM and 100 to 500 nM, respectively.

As to `CN(Cc1cccc(C#N)c1)C1CCN(C(=O)N2CC(C)(C)c3ncccc32)CC1` [Example 83, 3-(((1-(3,3-dimethyl-2,3-dihydro-1H-pyrrolo[3,2-b]pyridine-1-carbonyl)piperidin-4-yl)(methyl)amino)methyl)benzonitrile], the Ki in assay [1] (setting [3]) was 100 to 500 nM; in assay [2], greater than 1000 nM.

Turning to `CN(Cc1ccc(C#N)cc1)C1CCN(C(=O)N2CC(C)(C)c3ncccc32)CC1` [Example 84, 4-(((1-(3,3-dimethyl-2,3-dihydro-1H-pyrrolo[3,2-b]pyridine-1-carbonyl)piperidin-4-yl)(methyl)amino)methyl)benzonitrile], the Ki in assay [1] (setting [3]) is less than 100 nM; in assay [2], 100 to 500 nM.

In the case of `CN(Cc1cccc(F)c1)C1CCN(C(=O)N2CC(C)(C)c3ncccc32)CC1` [Example 85, (3,3-dimethyl-2,3-dihydro-1H-pyrrolo[3,2-b]pyridin-1-yl)(4-((3-fluorobenzyl)(methyl)amino)piperidin-1-yl)methanone], the Ki was in the range of 100 to 500 nM in assay [1] (setting [3]) and 500 to 1000 nM in assay [2].

Turning to `CN(Cc1ccc(F)cc1)C1CCN(C(=O)N2CC(C)(C)c3ncccc32)CC1` [Example 86, (3,3-dimethyl-2,3-dihydro-1H-pyrrolo[3,2-b]pyridin-1-yl)(4-((4-fluorobenzyl)(methyl)amino)piperidin-1-yl)methanone], the Ki in assay [1] (setting [3]) is less than 100 nM; in assay [2] it was 500 to 1000 nM.

Turning to `CN(Cc1ccc(C#N)c(F)c1)C1CCN(C(=O)N2CC(C)(C)c3ncccc32)CC1` [Example 87, 4-(((1-(3,3-dimethyl-2,3-dihydro-1H-pyrrolo[3,2-b]pyridine-1-carbonyl)piperidin-4-yl)(methyl)amino)methyl)-2-fluorobenzonitrile], the Ki in assay [1] (setting [3]) was less than 100 nM; in assay [2] it was 500 to 1000 nM.

Take `CC1(C)CN(C(=O)NC2CN(Cc3ccccc3)C2)c2cccnc21` [Example 88, N-(1-benzylazetidin-3-yl)-3,3-dimethyl-2,3-dihydro-1H-pyrrolo[3,2-b]pyridine-1-carboxamide]: the Ki in assay [1] (setting [3]) was greater than 1000 nM; in assay [2], 100 to 500 nM.

Regarding `CC1(C)CN(C(=O)N2CCC3(CCN(Cc4ccccc4)CC3)C2)c2cccnc21` [Example 89, (8-benzyl-2,8-diazaspiro[4.5]decan-2-yl)(3,3-dimethyl-2,3-dihydro-1H-pyrrolo[3,2-b]pyridin-1-yl)methanone], the Ki in assay [1] (setting [3]) and in assay [2] was less than 100 nM each time.

For the compound `CC1(C)CN(C(=O)N2CCC3(CCN(Cc4cccc(C#N)c4)CC3)C2)c2cccnc21` [Example 90, 3-((2-(3,3-dimethyl-2,3-dihydro-1H-pyrrolo[3,2-b]pyridine-1-carbonyl)-2,8-diazaspiro[4.5]decan-8-yl)methyl)benzonitrile], the inhibition constant Ki in assay [1] (setting [3]) was less than 100 nM; in assay [2], 100 to 500 nM.

Turning to `Cc1ccc2c(n1)C(C)(C)CN2C(=O)N1CCC2(CCN(CCc3ccccc3)CC2)C1` [Example 91, (8-phenethyl-2,8-diazaspiro[4.5]decan-2-yl)(3,3,5-trimethyl-2,3-dihydro-1H-pyrrolo[3,2-b]pyridin-1-yl)methanone], the Ki is less than 100 nM in assay [1] and 500 to 1000 nM in assay [2].

As for `Cc1ccc2c(n1)C(C)(C)CN2C(=O)N1CCC2(CCN(Cc3cccc(C#N)c3)CC2)C1` [Example 92, 3-((2-(3,3,5-trimethyl-2,3-dihydro-1H-pyrrolo[3,2-b]pyridine-1-carbonyl)-2,8-diazaspiro[4.5]decan-8-yl)methyl)benzonitrile], the Ki in assay [1] (setting [3]) was less than 100 nM; in assay [2], greater than 1000 nM.

With `Cc1ccc2c(n1)C(C)(C)CN2C(=O)N1CCC2(CC1)CN(Cc1ccccc1)C2` [Example 93, (2-benzyl-2,7-diazaspiro[3.5]nonan-7-yl)(3,3,5-trimethyl-2,3-dihydro-1H-pyrrolo[3,2-b]pyridin-1-yl)methanone], the Ki in assay [1] (setting [3]) and in assay [2] was 100 to 500 nM each time.

As to `Cc1ccc2c(n1)C(C)(C)CN2C(=O)N1CCC2(CCN(Cc3ccccn3)CC2)C1` [Example 94, (8-(pyridin-2-ylmethyl)-2,8-diazaspiro[4.5]decan-2-yl)(3,3,5-trimethyl-2,3-dihydro-1H-pyrrolo[3,2-b]pyridin-1-yl)methanone], the Ki in assay [1] (setting [3]) is 100 to 500 nM; in assay [2] it was greater than 1000 nM.

As for `COc1cccc(CN2CCC3(CC2)CCN(C(=O)N2CC(C)(C)c4nc(C)ccc42)C3)c1` [Example 95, (8-(3-methoxybenzyl)-2,8-diazaspiro[4.5]decan-2-yl)(3,3,5-trimethyl-2,3-dihydro-1H-pyrrolo[3,2-b]pyridin-1-yl)methanone], the Ki in assay [1] (setting [3]) is less than 100 nM; in assay [2] it was greater than 1000 nM.

For the compound `Cc1ccc2c(n1)C(C)(C)CN2C(=O)N1CCC2(CCN(C(C)c3ccccc3)CC2)C1` (stereo not drawn) [Example 96, (8-(1-phenylethyl)-2,8-diazaspiro[4.5]decan-2-yl)(3,3,5-trimethyl-2,3-dihydro-1H-pyrrolo[3,2-b]pyridin-1-yl)methanone], the Ki in assay [1] (setting [3]) and in assay [2] was 100 to 500 nM each time.

For the compound `O=C(N1CC[C@H](NCCc2ccccc2)C1)N1CCc2ncccc21` [Example 97, (S)-(2,3-dihydro-1H-pyrrolo[3,2-b]pyridin-1-yl)(3-(phenethylamino)pyrrolidin-1-yl)methanone], the values for the Ki in assay [1] (setting [3]) and in assay [2] were greater than 1000 nM and 500 to 1000 nM, respectively.

Turning to `Cc1ccc2c(n1)C(C)(C)CN2C(=O)N1CCC2(CCN(Cc3cccnc3)CC2)C1` [Example 98, (8-(pyridin-3-ylmethyl)-2,8-diazaspiro[4.5]decan-2-yl)(3,3,5-trimethyl-2,3-dihydro-1H-pyrrolo[3,2-b]pyridin-1-yl)methanone], the Ki in assay [1] (setting [3]) is less than 100 nM; in assay [2], greater than 1000 nM.

Turning to `Cc1ccc2c(n1)C(C)(C)CN2C(=O)N1CCC2(CCN(Cc3ccncc3)CC2)C1` [Example 99, (8-(pyridin-4-ylmethyl)-2,8-diazaspiro[4.5]decan-2-yl)(3,3,5-trimethyl-2,3-dihydro-1H-pyrrolo[3,2-b]pyridin-1-yl)methanone], the Ki was less than 100 nM in assay [1] (setting [3]) and greater than 1000 nM in assay [2].

Take `Cc1ccc2c(n1)C(C)(C)CN2C(=O)N1CCC2(CCN(CCC(C)C)CC2)C1` [Example 100, (8-isopentyl-2,8-diazaspiro[4.5]decan-2-yl)(3,3,5-trimethyl-2,3-dihydro-1H-pyrrolo[3,2-b]pyridin-1-yl)methanone]: the Ki in assay [1] (setting [3]) is less than 100 nM; in assay [2], 500 to 1000 nM.

Turning to `O=C(N1CCC[C@H](NCCc2ccccc2)C1)N1CCc2ncccc21` [Example 101, (S)-(2,3-dihydro-1H-pyrrolo[3,2-b]pyridin-1-yl)(3-(phenethylamino)piperidin-1-yl)methanone], the Ki in assay [1] (setting [3]) is 100 to 500 nM; in assay [2], greater than 1000 nM.

On to `Cc1ccc2c(n1)C(C)(C)CN2C(=O)N1CCC2(CCN(Cc3cccc(S(C)(=O)=O)c3)CC2)C1` [Example 102, (8-(3-(methylsulfonyl)benzyl)-2,8-diazaspiro[4.5]decan-2-yl)(3,3,5-trimethyl-2,3-dihydro-1H-pyrrolo[3,2-b]pyridin-1-yl)methanone], for which the Ki in assay [1] (setting [3]) was less than 100 nM; in assay [2], greater than 1000 nM.
